Data published in ChEMBL document CHEMBL5291721, “A preclinical secondary pharmacology resource illuminates target-adverse drug reaction associations of marketed drugs” (Nat Commun, 2023).

Legend:
[1] = target: T1, Alpha-2A adrenergic receptor (Homo sapiens, UniProt P08913); assay type: functional, cell-based
T1 sequence (P08913 whole entry): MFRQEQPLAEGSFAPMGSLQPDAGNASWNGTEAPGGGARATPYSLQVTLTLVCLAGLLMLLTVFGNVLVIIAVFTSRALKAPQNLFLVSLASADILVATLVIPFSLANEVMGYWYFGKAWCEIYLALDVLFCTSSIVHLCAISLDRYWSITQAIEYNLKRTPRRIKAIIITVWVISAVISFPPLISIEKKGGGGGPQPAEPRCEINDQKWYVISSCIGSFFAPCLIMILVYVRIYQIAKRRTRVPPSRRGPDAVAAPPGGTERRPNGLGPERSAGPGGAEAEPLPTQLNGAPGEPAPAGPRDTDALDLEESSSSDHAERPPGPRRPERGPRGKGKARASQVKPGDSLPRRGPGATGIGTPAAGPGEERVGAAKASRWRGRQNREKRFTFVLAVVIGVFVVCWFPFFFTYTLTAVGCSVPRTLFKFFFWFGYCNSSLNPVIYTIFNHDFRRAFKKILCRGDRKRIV

[2] = target: T2, Alpha-2C adrenergic receptor (Homo sapiens, UniProt P18825); assay type: functional
T2 sequence (P18825 whole entry): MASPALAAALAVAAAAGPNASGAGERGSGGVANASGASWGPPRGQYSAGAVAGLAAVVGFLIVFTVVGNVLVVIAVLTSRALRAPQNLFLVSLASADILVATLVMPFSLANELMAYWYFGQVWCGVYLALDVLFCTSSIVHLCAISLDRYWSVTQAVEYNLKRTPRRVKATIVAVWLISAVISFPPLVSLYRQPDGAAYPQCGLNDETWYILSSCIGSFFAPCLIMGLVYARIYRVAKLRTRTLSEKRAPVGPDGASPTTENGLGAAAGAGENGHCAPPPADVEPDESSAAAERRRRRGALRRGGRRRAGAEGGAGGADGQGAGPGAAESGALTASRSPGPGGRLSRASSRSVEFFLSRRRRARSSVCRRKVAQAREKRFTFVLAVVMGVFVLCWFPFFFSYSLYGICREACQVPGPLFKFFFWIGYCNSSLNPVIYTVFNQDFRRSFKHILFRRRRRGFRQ

[3] = target: Beta-2 adrenergic receptor (Homo sapiens, UniProt P07550)
Beta-2 adrenergic receptor, sequence (P07550 whole entry): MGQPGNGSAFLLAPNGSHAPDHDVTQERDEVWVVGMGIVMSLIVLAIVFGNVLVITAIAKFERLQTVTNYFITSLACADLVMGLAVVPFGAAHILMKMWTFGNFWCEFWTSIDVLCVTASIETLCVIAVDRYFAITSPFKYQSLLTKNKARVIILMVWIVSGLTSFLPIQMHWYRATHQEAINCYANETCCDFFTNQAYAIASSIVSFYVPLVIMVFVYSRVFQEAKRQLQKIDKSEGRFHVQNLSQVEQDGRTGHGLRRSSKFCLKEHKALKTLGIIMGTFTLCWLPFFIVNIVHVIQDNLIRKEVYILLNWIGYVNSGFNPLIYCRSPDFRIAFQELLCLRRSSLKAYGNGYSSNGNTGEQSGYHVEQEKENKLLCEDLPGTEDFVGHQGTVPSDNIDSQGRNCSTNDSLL

Cannabinoid receptor 1 = Cannabinoid receptor 1 (Homo sapiens, UniProt P21554)
Cannabinoid receptor 1, sequence (P21554 whole entry): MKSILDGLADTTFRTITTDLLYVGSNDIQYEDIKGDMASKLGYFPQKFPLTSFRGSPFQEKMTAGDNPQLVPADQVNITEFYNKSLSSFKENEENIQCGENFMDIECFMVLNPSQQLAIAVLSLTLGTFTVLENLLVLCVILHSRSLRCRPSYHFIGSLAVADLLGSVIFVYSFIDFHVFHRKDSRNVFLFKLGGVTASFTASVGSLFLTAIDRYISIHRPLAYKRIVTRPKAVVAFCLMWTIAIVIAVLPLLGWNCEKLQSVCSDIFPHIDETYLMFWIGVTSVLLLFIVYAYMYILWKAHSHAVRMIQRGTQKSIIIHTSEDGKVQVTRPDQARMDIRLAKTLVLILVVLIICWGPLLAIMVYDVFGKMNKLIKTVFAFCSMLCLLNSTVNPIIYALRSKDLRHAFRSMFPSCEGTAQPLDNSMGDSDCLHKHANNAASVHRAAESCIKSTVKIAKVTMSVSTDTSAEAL

[4] = target: Glutamate receptor ionotropic, NMDA 1 (Rattus norvegicus, UniProt P35439)
[5] = target: T3, 5-hydroxytryptamine receptor 2C (Homo sapiens, UniProt P28335)
T3 sequence (P28335 whole entry): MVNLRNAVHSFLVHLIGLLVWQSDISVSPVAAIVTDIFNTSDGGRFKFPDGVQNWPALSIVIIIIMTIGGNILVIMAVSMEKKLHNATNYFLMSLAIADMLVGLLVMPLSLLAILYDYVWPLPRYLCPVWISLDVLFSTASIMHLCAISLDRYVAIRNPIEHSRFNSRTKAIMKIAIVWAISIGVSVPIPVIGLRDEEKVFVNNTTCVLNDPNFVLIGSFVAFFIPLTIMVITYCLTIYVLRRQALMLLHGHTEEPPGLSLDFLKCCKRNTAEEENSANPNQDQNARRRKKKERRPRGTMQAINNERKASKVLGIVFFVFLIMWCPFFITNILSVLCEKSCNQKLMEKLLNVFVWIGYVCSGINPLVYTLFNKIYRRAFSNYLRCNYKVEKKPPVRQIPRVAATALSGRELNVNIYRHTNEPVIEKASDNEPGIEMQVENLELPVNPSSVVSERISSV

[6] = target: T4, 5-hydroxytryptamine receptor 3A (Homo sapiens, UniProt P46098); assay type: functional
T4 sequence (P46098 whole entry): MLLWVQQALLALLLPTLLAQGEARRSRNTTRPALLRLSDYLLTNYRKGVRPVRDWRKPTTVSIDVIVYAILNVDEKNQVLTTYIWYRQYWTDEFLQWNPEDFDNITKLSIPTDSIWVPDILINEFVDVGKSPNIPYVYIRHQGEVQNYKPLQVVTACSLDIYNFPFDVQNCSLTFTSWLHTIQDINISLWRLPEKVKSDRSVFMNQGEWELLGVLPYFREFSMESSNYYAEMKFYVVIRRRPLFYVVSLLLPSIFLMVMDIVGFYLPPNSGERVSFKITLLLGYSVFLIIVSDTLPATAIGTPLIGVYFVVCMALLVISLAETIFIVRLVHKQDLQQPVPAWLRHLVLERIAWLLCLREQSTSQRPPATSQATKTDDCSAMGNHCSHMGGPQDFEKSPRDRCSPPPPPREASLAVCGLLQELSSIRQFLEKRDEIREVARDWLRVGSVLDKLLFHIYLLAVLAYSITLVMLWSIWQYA

[7] = target: cGMP-inhibited 3',5'-cyclic phosphodiesterase 3A (Homo sapiens, UniProt Q14432); assay type: functional
cGMP-inhibited 3',5'-cyclic phosphodiesterase 3A, sequence (Q14432 whole entry): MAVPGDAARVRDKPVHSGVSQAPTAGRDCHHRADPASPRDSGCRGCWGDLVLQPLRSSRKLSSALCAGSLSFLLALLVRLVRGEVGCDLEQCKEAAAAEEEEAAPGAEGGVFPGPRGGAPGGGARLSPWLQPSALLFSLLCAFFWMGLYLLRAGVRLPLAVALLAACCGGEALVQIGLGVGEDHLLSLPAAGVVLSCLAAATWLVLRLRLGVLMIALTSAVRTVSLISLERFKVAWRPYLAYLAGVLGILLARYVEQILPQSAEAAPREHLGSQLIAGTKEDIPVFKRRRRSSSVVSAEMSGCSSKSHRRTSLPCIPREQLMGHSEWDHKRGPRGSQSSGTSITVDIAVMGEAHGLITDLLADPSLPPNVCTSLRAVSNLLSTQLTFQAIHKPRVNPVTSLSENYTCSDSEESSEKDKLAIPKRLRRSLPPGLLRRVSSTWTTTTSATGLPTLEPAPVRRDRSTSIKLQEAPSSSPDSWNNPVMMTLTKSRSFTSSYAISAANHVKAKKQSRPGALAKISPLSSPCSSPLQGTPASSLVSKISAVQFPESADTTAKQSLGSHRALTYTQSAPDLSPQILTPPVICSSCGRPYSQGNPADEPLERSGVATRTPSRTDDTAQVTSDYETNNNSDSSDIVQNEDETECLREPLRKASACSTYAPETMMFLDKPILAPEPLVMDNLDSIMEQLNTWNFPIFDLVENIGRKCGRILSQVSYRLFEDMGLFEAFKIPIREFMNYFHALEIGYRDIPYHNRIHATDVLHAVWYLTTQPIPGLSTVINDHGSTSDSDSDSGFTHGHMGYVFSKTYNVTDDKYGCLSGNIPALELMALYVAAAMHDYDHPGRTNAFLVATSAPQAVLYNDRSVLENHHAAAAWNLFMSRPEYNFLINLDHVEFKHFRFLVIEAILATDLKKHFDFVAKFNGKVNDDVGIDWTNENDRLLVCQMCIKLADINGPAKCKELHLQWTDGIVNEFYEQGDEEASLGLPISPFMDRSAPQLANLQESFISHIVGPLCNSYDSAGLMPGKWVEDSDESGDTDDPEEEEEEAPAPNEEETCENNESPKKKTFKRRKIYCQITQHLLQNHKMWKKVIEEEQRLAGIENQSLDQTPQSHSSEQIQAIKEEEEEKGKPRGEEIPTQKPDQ
Also: assay procedure not described here.

SMILES	AC50 [1] [µM]	AC50 [2] [µM]	AC50 [3] [µM]	AC50 (Cannabinoid receptor 1) [µM]	AC50 [4] [µM]	AC50 [5] [µM]	AC50 [6] [µM]	AC50 [7] [µM]
O=C1C(CC[S+]([O-])c2ccccc2)C(=O)N(c2ccccc2)N1c1ccccc1 (stereo unspecified) [SULFINPYRAZONE]	> 30	> 10	> 10	> 10	> 10	> 30	> 30	> 30
Cc1onc(-c2ccccc2)c1-c1ccc(S(N)(=O)=O)cc1 [VALDECOXIB]	> 10	> 10	21.1	> 10	> 10	> 30	> 30	> 30
CN(C)CCC[C@@]1(c2ccc(F)cc2)OCc2cc(C#N)ccc21 [ESCITALOPRAM]	> 30	> 30			> 30		> 30	> 30
COc1cc2nc(N3CCN(C(=O)C4CCCO4)CC3)nc(N)c2cc1OC (stereo unspecified) [TERAZOSIN]	> 30		> 10	> 10	> 10	> 30	> 10	> 30
Nc1ccc(S(=O)(=O)Nc2nccs2)cc1 [SULFATHIAZOLE]	> 10	> 10	> 10	> 10	> 10	> 30	> 30	> 30
CC(C)N(CCC(C(N)=O)(c1ccccc1)c1ccccn1)C(C)C (stereo unspecified) [DISOPYRAMIDE]	> 10	> 10	> 30	> 10	> 10	> 30	> 30	5.4
CCCC(CCC)C(=O)O [VALPROIC ACID]	> 10	> 10	> 10	> 10	> 10	11	> 30	> 30
O=C1CCc2cc(OCCCCc3nnnn3C3CCCCC3)ccc2N1 [CILOSTAZOL]	> 30	> 30	> 30	> 10	> 30	> 30	> 30	0.424
C[C@@H](NCCCc1cccc(C(F)(F)F)c1)c1cccc2ccccc12	> 30	0.83			> 30	0.73	> 30	> 30
C=C[C@H]1C[N@@]2CC[C@H]1C[C@@H]2[C@@H](O)c1ccnc2ccc(OC)cc12 [QUINIDINE]	12	18	> 10	> 10	> 10	> 10	> 30	> 30
OC[C@H]1O[C@@](CO)(O[C@H]2O[C@H](CO)[C@@H](O)[C@H](O)[C@H]2O)[C@@H](O)[C@@H]1O [SUCROSE]	> 30				> 30	> 30	> 30	> 30
C[C@H]1c2cccc(O)c2C(=O)C2=C(O)[C@]3(O)C(=O)C(C(N)=O)=C(O)[C@@H](N(C)C)[C@@H]3[C@@H](O)[C@@H]21 [DOXYCYCLINE]	> 10	> 10	> 10	> 10	> 10	> 30	> 30	> 30
CO[C@H]1/C=C/O[C@@]2(C)Oc3c(C)c(O)c4c(O)c(c(/C=N/N5CCN(C)CC5)c(O)c4c3C2=O)NC(=O)/C(C)=C\C=C\[C@H](C)[C@H](O)[C@@H](C)[C@@H](O)[C@@H](C)[C@H](OC(C)=O)[C@@H]1C [RIFAMPIN]	> 30	11	29	> 30	> 30		5.2	18.3
CCN1CCN(Cc2ccc(Nc3ncc(F)c(-c4cc(F)c5nc(C)n(C(C)C)c5c4)n3)nc2)CC1 [ABEMACICLIB]	> 30	> 30				> 30	> 30	> 30
CN1C[C@H](C(=O)N[C@]2(C)O[C@@]3(O)[C@@H]4CCCN4C(=O)[C@H](Cc4ccccc4)N3C2=O)C=C2c3cccc4[nH]cc(c34)C[C@H]21 [ERGOTAMINE]	0.3	0.14				3.8	> 30	> 30
COc1ccccc1OCCNCC(O)COc1cccc2[nH]c3ccccc3c12 (stereo unspecified) [CARVEDILOL]	3.09	0.061		> 10	5.09	1.1	> 10	> 30
CN(CC1(C)CCCO1)S(=O)(=O)c1ccc(Cl)c(S(N)(=O)=O)c1 (stereo unspecified) [MEFRUSIDE]	> 30	> 30			> 30	> 30	> 30	> 30
C[C@@H](Oc1cc(-c2cnn(C3CCNCC3)c2)cnc1N)c1c(Cl)ccc(F)c1Cl [CRIZOTINIB]	15	1.2	> 10	> 10		> 30	> 30	> 30
CN(C)CCc1c[nH]c2ccc(Cn3cncn3)cc12 [RIZATRIPTAN]	> 30	20.8	> 10	> 10	> 30		> 30	> 30
C#C[C@]1(O)CC[C@H]2[C@@H]3CCC4=CC(=O)CC[C@@H]4[C@H]3C(=C)C[C@@]21CC [ETONOGESTREL]	> 30	> 30			> 30	> 10	> 30	> 30
CC(C)c1nc(N(C)S(C)(=O)=O)nc(-c2ccc(F)cc2)c1/C=C/[C@@H](O)C[C@@H](O)CC(=O)O [ROSUVASTATIN]	> 30	> 30			> 30	> 30	> 30	> 30
C[C@H](CCC(=O)O)[C@H]1CC[C@H]2[C@@H]3[C@@H](O)C[C@@H]4C[C@H](O)CC[C@]4(C)[C@H]3CC[C@]12C [URSODIOL]	> 30	> 30				> 30	> 30	> 30
CN(C)CC[C@@H](c1ccc(Cl)cc1)c1ccccn1 [DEXCHLORPHENIRAMINE]	> 30	> 30	> 30		> 30	28	> 30	> 10
CC(S)C(=O)NCC(=O)O (stereo unspecified) [TIOPRONIN]	> 30	> 30				> 30	> 30	> 30
CCN(CC)CCNC(=O)c1c(C)[nH]c(/C=C2\C(=O)Nc3ccc(F)cc32)c1C [SUNITINIB]	24	1.77	8		> 30	2.25		18
